{"source": "paper PMC5612656", "about": "“In vitro and in vivo effects of 2,4 diaminoquinazoline inhibitors of the decapping scavenger enzyme DcpS: Context-specific modulation of SMN transcript levels” (PLoS ONE, 2017)", "key": {"[1]": {"system": "SMA Δ7 mice", "conditions": "SMAΔ7 mice; cited from earlier work"}, "[2]": {"system": "2B/- SMA mice", "experiment": "Combined 55° negative geotaxis/climb test in 2B/- SMA mice", "format": "in vivo, mouse"}, "[3]": {"system": "Smn transcripts in spinal cord, skeletal muscle, liver", "experiment": "Smn transcripts in mouse tissues by ddPCR", "format": "in vivo", "description": "At P1, pups were counted."}, "[4]": {"conditions": "P16, Fisher's exact test P-value = 0.0708"}}}
{"smiles": "Nc1nc(N)c2c(OCC3CCN(Cc4c(Cl)cccc4Cl)CC3)cccc2n1", "note": "[RG3039]", "values": [{"measurement": "SMN protein or snRNP assembly", "setting": "[1]", "value": "no detectable change"}, {"measurement": "full length and Δ7 SMN transcripts", "setting": "[1]", "value": "modest but statistically significant elevations"}, {"measurement": "simultaneous pass rate, 55° negative geotaxis and climb test", "setting": "[2]; 2B/- SMA mice at P16, combined sexes", "value": "about 78%"}, {"measurement": "improvement in ability to pass the combined assay over vehicle SMA mice", "setting": "[2]; [4]", "value": "~40", "unit": "%"}, {"measurement": "statistical significance of improvement over vehicle SMA mice in combined test", "setting": "[2]; [4]", "value": "showed improvement over vehicle SMA mice that did not reach statistical significance"}, {"measurement": "Smn transcripts (exons 5/6, exons 7/8, SmnΔ7) in tissues", "setting": "[3]; 2B/- SMA mice, P4-P16 BID i.p.", "value": "significant increases in Smn transcripts in all tissues"}, {"measurement": "SmnΔ7 transcripts in spinal cord", "setting": "[3]; 2B/- mice", "value": "trended to increase"}]}
